Test results reported in patent US7074789B2, “Kinase inhibitors” (Amgen Inc., priority 1999, dated 2006).

Experiments:
Type in all cases: biochemical
Lck = molecular target: T1, Lck (Homo sapiens, UniProt P06239); assay: Kinase inhibition assay (33P transfer), Lck; conditions: Table 3, class symbols; read-out: Lck-1
T1 construct: Kinases are expressed as either kinase domains or full length constructs; made in house
Outline: (§1)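 Kinase domains or full-length kinases, GST- or His-tagged and expressed in E. coli or baculovirus/High Five cells, transferred 33PO4 from ATP onto plate-bound poly(Glu,Tyr) 4:1 or poly(Arg,Ser) 3:1. After incubation, plates were washed with 0.5% phosphoric acid and counted by liquid scintillation.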

Zap-70 = molecular target: T2, Zap-70 (Homo sapiens, UniProt P43403); assay: Kinase inhibition assay (33P transfer), Zap-70; conditions: Table 3, class symbols; read-out: Zap-1
T2 construct: Kinases are expressed as either kinase domains or full length constructs; made in house
T2 sequence (P43403 1-619): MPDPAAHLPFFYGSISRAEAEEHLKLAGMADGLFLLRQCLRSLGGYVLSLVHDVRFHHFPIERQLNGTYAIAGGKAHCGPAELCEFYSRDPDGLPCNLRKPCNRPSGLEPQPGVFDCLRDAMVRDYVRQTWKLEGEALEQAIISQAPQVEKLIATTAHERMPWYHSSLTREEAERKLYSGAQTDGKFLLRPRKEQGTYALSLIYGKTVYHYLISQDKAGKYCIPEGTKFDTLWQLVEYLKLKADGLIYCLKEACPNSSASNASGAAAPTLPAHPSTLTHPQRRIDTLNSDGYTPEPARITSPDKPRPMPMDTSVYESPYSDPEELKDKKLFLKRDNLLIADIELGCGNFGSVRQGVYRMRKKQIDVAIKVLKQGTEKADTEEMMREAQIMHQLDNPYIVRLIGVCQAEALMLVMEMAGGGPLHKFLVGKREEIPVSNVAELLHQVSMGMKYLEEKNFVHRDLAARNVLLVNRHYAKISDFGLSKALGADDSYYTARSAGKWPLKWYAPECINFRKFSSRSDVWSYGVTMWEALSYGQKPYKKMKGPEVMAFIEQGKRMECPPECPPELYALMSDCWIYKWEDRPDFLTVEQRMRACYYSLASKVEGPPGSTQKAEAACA
Outline: as §1

Itk = molecular target: T3, Itk (Homo sapiens, UniProt Q08881); assay: Kinase inhibition assay (33P transfer), Itk; conditions: Table 3, class symbols; read-out: Itk-1
T3 construct: Kinases are expressed as either kinase domains or full length constructs; made in house
T3 sequence (Q08881 1-620): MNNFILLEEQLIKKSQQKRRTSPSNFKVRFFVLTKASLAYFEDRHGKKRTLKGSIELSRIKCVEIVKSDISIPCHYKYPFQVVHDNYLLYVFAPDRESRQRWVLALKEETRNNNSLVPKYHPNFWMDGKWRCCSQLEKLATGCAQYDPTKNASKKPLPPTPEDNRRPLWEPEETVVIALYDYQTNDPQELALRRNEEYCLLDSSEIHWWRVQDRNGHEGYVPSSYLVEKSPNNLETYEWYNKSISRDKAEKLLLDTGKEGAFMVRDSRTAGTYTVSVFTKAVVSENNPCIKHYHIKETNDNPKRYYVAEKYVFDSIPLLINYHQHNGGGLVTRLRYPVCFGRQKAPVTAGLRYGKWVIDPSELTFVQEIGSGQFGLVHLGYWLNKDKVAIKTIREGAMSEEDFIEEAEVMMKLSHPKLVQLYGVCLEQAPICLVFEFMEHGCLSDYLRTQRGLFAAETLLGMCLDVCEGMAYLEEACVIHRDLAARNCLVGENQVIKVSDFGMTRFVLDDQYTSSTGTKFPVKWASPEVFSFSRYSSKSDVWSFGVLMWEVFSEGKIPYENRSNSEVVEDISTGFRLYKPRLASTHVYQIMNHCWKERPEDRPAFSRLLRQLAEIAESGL
Outline: (§2)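 Kinase domains or full-length enzymes, GST- or polyHis-tagged, were expressed in E. coli or baculovirus High Five cells and affinity-purified. Transfer of 33PO4 from ATP onto plate-bound poly(Glu,Tyr) 4:1 or poly(Arg,Ser) 3:1 was counted by liquid scintillation after a 0.5% phosphoric acid wash. IC50 = concentration halving incorporation.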

EGFR = molecular target: T4, EGFR (Homo sapiens, UniProt P00533); assay: Kinase inhibition assay (33P transfer), EGFR; conditions: Table 2, class symbols A-E; read-out: EGFR-1
T4 construct: Kinases are expressed as either kinase domains or full length constructs; made in house
T4 sequence (P00533 25-1210, species assumed): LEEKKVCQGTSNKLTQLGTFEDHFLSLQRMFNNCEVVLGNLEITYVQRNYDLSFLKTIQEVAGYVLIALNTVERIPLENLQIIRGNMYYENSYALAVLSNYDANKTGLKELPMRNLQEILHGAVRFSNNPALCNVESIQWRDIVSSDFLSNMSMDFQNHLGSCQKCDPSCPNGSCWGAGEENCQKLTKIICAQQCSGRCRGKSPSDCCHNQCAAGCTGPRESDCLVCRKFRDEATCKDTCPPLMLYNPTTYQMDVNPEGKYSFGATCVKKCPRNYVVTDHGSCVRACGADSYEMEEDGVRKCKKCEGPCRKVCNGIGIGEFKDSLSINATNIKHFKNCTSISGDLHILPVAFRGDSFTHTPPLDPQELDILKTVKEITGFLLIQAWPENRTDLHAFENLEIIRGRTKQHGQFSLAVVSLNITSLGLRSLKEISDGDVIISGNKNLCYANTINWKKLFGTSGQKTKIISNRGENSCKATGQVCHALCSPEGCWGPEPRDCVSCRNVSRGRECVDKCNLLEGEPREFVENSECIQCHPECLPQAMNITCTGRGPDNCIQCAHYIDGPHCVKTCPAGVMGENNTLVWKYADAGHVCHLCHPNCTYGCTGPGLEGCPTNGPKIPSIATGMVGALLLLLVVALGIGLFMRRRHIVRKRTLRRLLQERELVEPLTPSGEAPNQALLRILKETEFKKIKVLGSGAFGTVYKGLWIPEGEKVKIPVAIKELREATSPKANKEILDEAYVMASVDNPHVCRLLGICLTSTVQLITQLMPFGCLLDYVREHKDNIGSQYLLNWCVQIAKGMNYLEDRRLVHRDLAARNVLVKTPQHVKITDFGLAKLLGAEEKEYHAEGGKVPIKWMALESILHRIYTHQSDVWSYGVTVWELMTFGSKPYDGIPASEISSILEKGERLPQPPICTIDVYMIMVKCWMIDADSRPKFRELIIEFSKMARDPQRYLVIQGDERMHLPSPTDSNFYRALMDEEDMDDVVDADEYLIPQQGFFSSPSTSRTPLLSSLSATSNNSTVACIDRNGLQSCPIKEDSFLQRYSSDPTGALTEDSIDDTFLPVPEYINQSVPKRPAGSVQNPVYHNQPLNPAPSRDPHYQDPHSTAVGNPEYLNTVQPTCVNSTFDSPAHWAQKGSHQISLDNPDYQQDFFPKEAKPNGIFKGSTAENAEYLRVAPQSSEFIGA
Outline: as §2

ErbB2 = molecular target: T5, ErbB2 (Homo sapiens, UniProt P04626); assay: Kinase inhibition assay (33P transfer), ErbB2; conditions: read-out: ErbB2-2
T5 construct: Kinases are expressed as either kinase domains or full length constructs; made in house
Outline: as §2

Kdr = molecular target: T6, Kdr (Homo sapiens, UniProt P35968); assay: Kinase inhibition assay (33P transfer), Kdr; conditions: Table 3, class symbols; read-out: KDR-1
T6 construct: Kinases are expressed as either kinase domains or full length constructs; made in house
Outline: as §1

c-Met = molecular target: T7, c-Met (Homo sapiens, UniProt P08581); assay: Kinase inhibition assay (33P transfer), c-Met; conditions: Table 2, class symbols A-E; read-out: Met-1
T7 construct: Kinases are expressed as either kinase domains or full length constructs; made in house
Outline: as §2

AKT = molecular target: T8, AKT (Homo sapiens, UniProt Q9Y243); assay: Kinase inhibition assay (33P transfer), AKT; conditions: Table 2, class symbols A-E; read-out: AKT3-1
T8 construct: Kinases are expressed as either kinase domains or full length constructs; made in house
T8 sequence (Q9Y243 whole entry, the tested form may be a part): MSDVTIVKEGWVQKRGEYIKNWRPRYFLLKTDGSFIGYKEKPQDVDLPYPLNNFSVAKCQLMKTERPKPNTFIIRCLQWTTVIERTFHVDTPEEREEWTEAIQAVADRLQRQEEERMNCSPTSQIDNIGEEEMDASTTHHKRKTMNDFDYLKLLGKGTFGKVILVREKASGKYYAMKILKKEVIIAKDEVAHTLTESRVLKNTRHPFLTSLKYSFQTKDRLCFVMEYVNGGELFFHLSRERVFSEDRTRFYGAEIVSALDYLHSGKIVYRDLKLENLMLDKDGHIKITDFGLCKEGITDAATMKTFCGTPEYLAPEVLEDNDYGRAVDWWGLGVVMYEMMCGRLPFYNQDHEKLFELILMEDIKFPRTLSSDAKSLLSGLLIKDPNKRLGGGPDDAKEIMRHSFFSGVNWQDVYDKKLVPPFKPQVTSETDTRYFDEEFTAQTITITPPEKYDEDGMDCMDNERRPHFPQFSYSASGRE
Outline: as §1

IGFR-1 = molecular target: T9, IGFR-1 (Homo sapiens, UniProt P08069); assay: Kinase inhibition assay (33P transfer), IGFR-1; conditions: Table 2, class symbols A-E
T9 construct: Kinases are expressed as either kinase domains or full length constructs; made in house
T9 sequence (P08069 31-1367): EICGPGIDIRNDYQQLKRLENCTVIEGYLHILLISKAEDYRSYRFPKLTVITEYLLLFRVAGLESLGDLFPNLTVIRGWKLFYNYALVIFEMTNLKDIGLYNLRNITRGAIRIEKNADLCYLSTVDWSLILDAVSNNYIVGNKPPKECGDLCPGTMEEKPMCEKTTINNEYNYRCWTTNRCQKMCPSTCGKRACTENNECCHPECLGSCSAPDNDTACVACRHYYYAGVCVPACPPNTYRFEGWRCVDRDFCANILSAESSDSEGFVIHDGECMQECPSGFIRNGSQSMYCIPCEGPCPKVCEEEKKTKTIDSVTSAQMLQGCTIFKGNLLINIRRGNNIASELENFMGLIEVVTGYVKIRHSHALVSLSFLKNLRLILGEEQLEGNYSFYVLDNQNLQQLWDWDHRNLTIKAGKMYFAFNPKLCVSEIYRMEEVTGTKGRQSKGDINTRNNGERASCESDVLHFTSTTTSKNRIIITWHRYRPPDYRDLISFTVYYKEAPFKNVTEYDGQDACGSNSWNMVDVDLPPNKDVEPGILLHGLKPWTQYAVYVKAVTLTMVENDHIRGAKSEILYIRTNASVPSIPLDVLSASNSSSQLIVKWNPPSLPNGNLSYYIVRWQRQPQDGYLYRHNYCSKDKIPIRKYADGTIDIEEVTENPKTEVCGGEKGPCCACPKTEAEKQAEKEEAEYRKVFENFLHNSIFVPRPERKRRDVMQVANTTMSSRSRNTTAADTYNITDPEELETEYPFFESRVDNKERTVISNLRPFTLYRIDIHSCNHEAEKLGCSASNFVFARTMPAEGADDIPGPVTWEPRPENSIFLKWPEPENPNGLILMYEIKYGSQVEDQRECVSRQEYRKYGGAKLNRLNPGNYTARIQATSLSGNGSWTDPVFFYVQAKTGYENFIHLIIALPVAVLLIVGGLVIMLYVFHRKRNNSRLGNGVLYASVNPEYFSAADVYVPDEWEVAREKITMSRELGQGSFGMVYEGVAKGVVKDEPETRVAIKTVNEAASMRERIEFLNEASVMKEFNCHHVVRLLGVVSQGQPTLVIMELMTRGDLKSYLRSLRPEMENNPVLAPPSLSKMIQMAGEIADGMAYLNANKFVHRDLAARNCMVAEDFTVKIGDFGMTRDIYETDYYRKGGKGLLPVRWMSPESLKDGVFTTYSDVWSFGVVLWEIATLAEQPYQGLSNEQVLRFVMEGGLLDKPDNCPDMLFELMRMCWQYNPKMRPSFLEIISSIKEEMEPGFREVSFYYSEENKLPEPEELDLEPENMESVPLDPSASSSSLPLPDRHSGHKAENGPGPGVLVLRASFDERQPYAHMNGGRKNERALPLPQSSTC

PDGFRB = molecular target: T10, PDGFRB (Homo sapiens, UniProt P09619); assay: Kinase inhibition assay (33P transfer), PDGFRB; conditions: read-out: PDGFRB-1
T10 construct: Kinases are expressed as either kinase domains or full length constructs; made in house
T10 sequence (P09619 33-1106, species assumed): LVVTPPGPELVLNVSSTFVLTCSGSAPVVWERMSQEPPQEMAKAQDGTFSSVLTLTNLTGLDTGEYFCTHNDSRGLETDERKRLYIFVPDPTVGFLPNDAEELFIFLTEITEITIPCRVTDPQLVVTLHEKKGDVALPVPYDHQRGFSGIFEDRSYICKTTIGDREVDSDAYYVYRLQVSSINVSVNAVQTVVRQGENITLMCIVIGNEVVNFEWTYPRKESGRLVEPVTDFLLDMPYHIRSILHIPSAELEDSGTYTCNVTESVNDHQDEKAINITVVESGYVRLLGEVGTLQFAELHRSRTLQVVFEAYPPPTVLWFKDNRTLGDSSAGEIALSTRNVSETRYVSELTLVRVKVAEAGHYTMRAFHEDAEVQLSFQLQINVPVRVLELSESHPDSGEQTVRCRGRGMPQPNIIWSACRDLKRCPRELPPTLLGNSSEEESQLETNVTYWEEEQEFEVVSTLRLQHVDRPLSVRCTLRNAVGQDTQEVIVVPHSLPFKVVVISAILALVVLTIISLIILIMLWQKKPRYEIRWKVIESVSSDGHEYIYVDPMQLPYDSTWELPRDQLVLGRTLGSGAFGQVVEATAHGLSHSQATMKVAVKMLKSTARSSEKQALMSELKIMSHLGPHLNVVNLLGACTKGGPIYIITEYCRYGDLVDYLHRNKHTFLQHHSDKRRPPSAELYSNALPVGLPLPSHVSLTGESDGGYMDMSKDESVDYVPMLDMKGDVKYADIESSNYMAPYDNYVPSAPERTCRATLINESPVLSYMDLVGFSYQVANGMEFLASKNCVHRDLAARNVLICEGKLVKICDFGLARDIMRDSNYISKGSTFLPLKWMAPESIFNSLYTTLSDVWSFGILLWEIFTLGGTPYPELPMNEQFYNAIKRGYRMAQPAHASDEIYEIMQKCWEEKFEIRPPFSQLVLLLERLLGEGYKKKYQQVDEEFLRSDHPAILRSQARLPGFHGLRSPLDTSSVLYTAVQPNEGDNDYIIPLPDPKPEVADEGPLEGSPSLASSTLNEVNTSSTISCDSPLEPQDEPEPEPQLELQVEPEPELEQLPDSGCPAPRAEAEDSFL

T1 sequence (P06239 whole entry, species assumed, the tested form may be a part): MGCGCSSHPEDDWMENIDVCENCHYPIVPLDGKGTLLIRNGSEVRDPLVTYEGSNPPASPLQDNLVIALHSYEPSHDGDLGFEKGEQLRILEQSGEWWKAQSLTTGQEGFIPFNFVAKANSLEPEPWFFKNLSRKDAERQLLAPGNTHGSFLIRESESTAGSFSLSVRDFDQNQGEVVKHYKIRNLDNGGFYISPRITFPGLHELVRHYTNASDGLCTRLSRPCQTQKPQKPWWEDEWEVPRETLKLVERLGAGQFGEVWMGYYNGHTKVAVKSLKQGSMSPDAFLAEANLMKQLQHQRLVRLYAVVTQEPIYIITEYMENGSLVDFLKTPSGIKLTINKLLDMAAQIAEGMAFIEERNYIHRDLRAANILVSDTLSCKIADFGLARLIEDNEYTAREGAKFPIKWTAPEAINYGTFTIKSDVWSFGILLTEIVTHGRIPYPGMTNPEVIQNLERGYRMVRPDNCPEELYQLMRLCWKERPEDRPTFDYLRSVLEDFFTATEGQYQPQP

| Structure (SMILES) | IC50 (Lck) | IC50 (Zap-70) | IC50 (Itk) | IC50 (EGFR) | IC50 (ErbB2) | IC50 (Kdr) | IC50 (c-Met) | IC50 (AKT) | IC50 (IGFR-1) | IC50 (PDGFRB) |
| --- | --- | --- | --- | --- | --- | --- | --- | --- | --- | --- |
| COC(=O)c1ccc(-c2cc(Nc3ncnc(Nc4cccc(S(=O)(=O)O)c4)n3)[nH]n2)cc1 [Compound 882] | 5.13 to 7.49 µM | > 9.63 µM | 0.856 to 5.13 µM | 0.856 to 5.13 µM | 0.856 to 5.13 µM | 0.856 to 5.13 µM | 0.856 to 5.13 µM | 5.13 to 7.49 µM | 0.856 to 5.13 µM | 0.856 to 5.13 µM |
| COc1ccc(Nc2ncnc(N(C)CCc3ccccn3)n2)cc1OC [Compound 869] | > 12.3 µM | > 12.3 µM | 6.55 to 9.55 µM | 1.09 to 6.55 µM | 9.55 to 12.3 µM | 9.55 to 12.3 µM | 9.55 to 12.3 µM | > 12.3 µM | > 12.3 µM | 1.09 to 6.55 µM |
| COc1ccc(Nc2ncnc(N(C)c3ccc(F)cc3F)n2)cc1OC [Compound 801] | 1.07 to 6.43 µM | > 12.1 µM | > 12.1 µM | < 1.07 µM | 9.37 to 12.1 µM | 6.43 to 9.37 µM | 1.07 to 6.43 µM | > 12.1 µM | > 12.1 µM | 1.07 to 6.43 µM |
| COc1ccc(Nc2ncnc(N(C)c3ccccc3)n2)cc1OC [Compound 797] | 1.19 to 7.11 µM | > 13.3 µM | > 13.3 µM | < 1.19 µM | 1.19 to 7.11 µM | 1.19 to 7.11 µM | 1.19 to 7.11 µM | > 13.3 µM | 7.11 to 10.4 µM | 7.11 to 10.4 µM |
| COC(=O)c1ccc(-c2cc(Nc3ncnc(Nc4ccc(N5CCOCC5)cc4)n3)[nH]n2)cc1 [Compound 807] | > 9.52 µM | > 9.52 µM | 5.08 to 7.41 µM | 7.41 to 9.52 µM | 0.847 to 5.08 µM | > 9.52 µM | < 0.847 µM | > 9.52 µM | 0.847 to 5.08 µM | > 9.52 µM |
| Cc1ccc(Cl)cc1Nc1ncnc(N2c3ccc(F)cc3CCC2C)n1 (centres unmarked) [Compound 644] | > 11.7 µM | > 11.7 µM | 9.12 to 11.7 µM | 1.04 to 6.25 µM | > 11.7 µM | 1.04 to 6.25 µM | 1.04 to 6.25 µM | > 11.7 µM | > 11.7 µM | 1.04 to 6.25 µM |
| FC(F)(F)Sc1cccc(Nc2ncnc(Nc3cc(-c4ccco4)[nH]n3)n2)c1 [Compound 827] | 0.954 to 5.72 µM | 0.954 to 5.72 µM | 0.954 to 5.72 µM | < 0.954 µM | < 0.954 µM | 0.954 to 5.72 µM | 0.954 to 5.72 µM | 8.35 to 10.7 µM | 0.954 to 5.72 µM | 0.954 to 5.72 µM |
| COC(=O)c1ccc(-c2cc(Nc3ncnc(NCCN4CCOCC4)n3)[nH]n2)cc1 [Compound 808] | > 10.6 µM | > 10.6 µM | > 10.6 µM | 5.65 to 8.25 µM | > 10.6 µM | > 10.6 µM | > 10.6 µM | > 10.6 µM | > 10.6 µM | 0.942 to 5.65 µM |
| COC(=O)c1ccc(-c2cc(Nc3ncnc(NC4=NC(=O)CS4)n3)[nH]n2)cc1 [Compound 881] | > 11 µM | > 11 µM | 0.975 to 5.85 µM | 0.975 to 5.85 µM | 0.975 to 5.85 µM | 0.975 to 5.85 µM | 0.975 to 5.85 µM | > 11 µM | 0.975 to 5.85 µM | 0.975 to 5.85 µM |

The next lines start with the values.

| IC50 (Lck) | IC50 (Zap-70) | IC50 (Itk) | IC50 (EGFR) | IC50 (ErbB2) | IC50 (Kdr) | IC50 (c-Met) | IC50 (AKT) | IC50 (IGFR-1) | IC50 (PDGFRB) | Structure (SMILES) |
| --- | --- | --- | --- | --- | --- | --- | --- | --- | --- | --- |
| > 10.7 µM | > 10.7 µM | > 10.7 µM | > 10.7 µM | > 10.7 µM | > 10.7 µM | > 10.7 µM | > 10.7 µM | > 10.7 µM | 0.954 to 5.72 µM | COC(=O)c1ccc(-c2cc(Nc3ncnc(NCc4ccccc4F)n3)[nH]n2)cc1 [Compound 814] |
| > 9.59 µM | > 9.59 µM | > 9.59 µM | 0.852 to 5.11 µM | 5.11 to 7.46 µM | 5.11 to 7.46 µM | 0.852 to 5.11 µM | > 9.59 µM | > 9.59 µM | 0.852 to 5.11 µM | COC(=O)c1ccc(-c2cc(Nc3ncnc(Nc4cc(=O)n(-c5ccccc5)[nH]4)n3)[nH]n2)cc1 [Compound 880] |
| < 0.888 µM | > 9.99 µM | 7.77 to 9.99 µM | < 0.888 µM | 0.888 to 5.33 µM | < 0.888 µM | 5.33 to 7.77 µM | 7.77 to 9.99 µM | > 9.99 µM | < 0.888 µM | NC(=O)Cc1cccc(Nc2ncnc(-n3c(NCc4ccccc4)nc4ccccc43)n2)c1 [Compound 967] |
| 0.945 to 5.67 µM | > 10.6 µM | 8.26 to 10.6 µM | < 0.945 µM | 0.945 to 5.67 µM | 5.67 to 8.26 µM | 0.945 to 5.67 µM | 8.26 to 10.6 µM | 5.67 to 8.26 µM | 0.945 to 5.67 µM | COc1cccc(Nc2ncnc(Nc3ccc4c(cnn4Cc4ccccc4)c3)n2)c1 [Compound 904] |
| > 10.3 µM | > 10.3 µM | > 10.3 µM | < 0.914 µM | < 0.914 µM | < 0.914 µM | > 10.3 µM | > 10.3 µM | > 10.3 µM | < 0.914 µM | O=C(O)c1cccc(Nc2ncnc(-n3c(NCc4ccccc4)nc4ccccc43)n2)c1 [Compound 1069] |
